Results from patent US8323708B2, “Poultry meat and eggs comprising beneficial fatty acids” (Monsanto Technology LLC, priority 2009, dated 2012).

Assays:
[1] = Laying hen study: long chain fatty acid composition of eggs; type: in vivo, laying hens; conditions: total egg
Method: A study was conducted to determine whether laying hens fed a diet enriched in stearidonic acid could produce eggs with elevated levels of beneficial omega-3 fatty acids including EPA and DHA. Mature laying hens […] were randomly allotted to seven dietary treatments (16 hens/treatment) and were fed diets containing the following levels of n-3 fatty acids as described in Table 28 for four weeks. Sixteen birds were given each treatment. Four birds were randomly selected out of the 16 per treatment to obtain eggs during week 4 for fatty acid composition. […] The laying hens had ad libitum access to feed and water. The composition of the diets (Table 29) and premixes (Table 30) are provided below. To help prevent oxidation of the fatty acids, 0.05% ethoxyquin (Rendox) was added to each premix. Premixes were manufactured within 3 days of arrival of ethyl esters. To limit the oxidation associated with storage, diets were manufactured once and stored in a refrigerated cooler at 4° C. during the duration of the study. Eggs collected during […] (days 22-28) were maintained under refrigerated conditions until all eggs for that week were collected. Eggs were sorted by hen and treatment. Two eggs per hen from 4 hens per treatment were taken. The two eggs were weighed individually, cracked and the shell weighed. The difference between fresh egg and shell represented liquid egg weight and served as the basis for further calculations. The liquid fraction from each of the two eggs per hen were combined in a sample cup and homogenized. Samples were analyzed for fatty acids by gas chromatography.

[2] = 42 day broiler study: fatty acid composition of thigh meat and attached skin; type: in vivo, broiler chickens (Ross x Ross 308)
Method: (§1) A 42 day study was conducted to determine whether broiler chickens fed a diet containing SDA could produce meat with elevated levels of omega-3 fatty acids as compared to chickens fed diets containing DHA and fish oil.
(§2) Fifty six pens of 25 male birds (Ross×Ross 308) per pen were used. Day old birds were obtained and immediately placed in floor pens containing (used) pine wood shavings, hanging tube feeders and nipple-waterers or plassons. Eight pens were each fed one of seven treatments for 42 days. The experiment was divided into four growth phases (0-7 days, 7-21 days, 21-35 days, and 35-42 days). The experimental diets were crumbled for the first two phases (0-21 days) and pelleted thereafter.
(§3) Diets consisted of 93% base mix (Table 10) plus 7% Test Oil Mix (Table 11). The diets supplied 3008, 3083, 3183 and 3208 kcal/kg of metabolizable energy for the pre-starter, starter, grower and finisher phases, respectively.
(§4) A randomized block design was used. Treatments were randomly assigned to pens such that each of the seven treatments was replicated 8 times (8 pens with each pen containing 25 birds).
(§5) On day 42, following a 10-hour period of feed withdrawal, 8 birds per pen (64 birds/treatment; 7 treatments; 448 birds total) were randomly selected and processed using commercial processing procedures. Carcasses were cut-up and de-boned at 4 hours postmortem. Carcass and parts yields were calculated and meat samples (breast and thigh) were collected for meat quality, fatty acid analysis, and sensory evaluation.

[3] = 21 day broiler study: long chain fatty acid composition of thigh meat; type: in vivo, broiler chickens; conditions: day 21-42; for ALA (C18:3n-3) / DHA (C22:6n-3) / DPA (C22:5 n-3) / EPA (C20:5n-3) / Omega 6/Omega 3 ratio / SDA (C18:4n-3) / Total omega 3's: boneless skinless thigh meat
Method: (§6) A 21 day study was conducted to determine whether broiler chickens fed a diet containing SDA could produce meat with elevated levels of omega-3 fatty acids including EPA and DHA.
(§7) Fifty pens of four birds per pen were used. There were 25 pens of males and 25 pens of females. Five pens of males and five pens of females were each fed one of five treatment diets from day 21 to 42 days of age. Prior to day 21 all birds were fed a standard 22% protein starter diet formulated to meet NRC (1994) nutrient requirements (shown in Table 16 as “S” diet). The feed prepared was feed as a crumble.
(§8) The test diets were prepared and fed in mash form. All broilers had ad libitum access to feed and water for the duration of the 21 day study. The composition of the diets (Table 4) and premixes (Table 5) are provided below.
(§9) To help prevent oxidation of the fatty acids, 0.05% ethoxyquin (Rendox) was added to each premix. Premixes were manufactured within 3 days of arrival of ethyl esters. To limit oxidation associated with storage, diets were manufactured once and stored in a refrigerated cooler at 4° C. during the duration of the study.
(§10) For male pens only, four out of the five pens were randomly selected. Two birds from each of these pens were randomly selected (eights birds per treatment). The right and left thigh and right and left breast from these 40 birds were bagged and labeled and frozen. The right breast and thigh samples were analyzed for shelf life stability and the left skinless breast and left boneless, skinless thigh from these same birds were analyzed for fatty acid composition.

[4] = 42 day broiler study: fatty acid composition of breast meat; type: in vivo, broiler chickens (Ross x Ross 308)
Method: as §1, §2, §3, §4, §5

[5] = 21 day broiler study: long chain fatty acid composition of skinless breast meat; type: in vivo, broiler chickens; conditions: day 21-42
Method: as §6, §7, §8, §9, §10

[6] = thigh meat and attached skin, 0.27% in feed (as ethyl esters), day 0-42
[7] = 0.27% in feed (as ethyl esters), day 0-42

Which “ALA (C18:3n-3)” value ([1]; 0.932% of diet) does the source give for `CC/C=C\C/C=C\C/C=C\CCCCCCCC(=O)OCC` [ALA Ethyl Ester] here?
Its value is 267.5 mg/100 g.

What about the “DHA (C22:6n-3)” value ([1]; 0.932% of diet) of the same molecule?
The value was 132.5 mg/100 g.

And the “DPA (C22:5 n-3)” value ([1]; 0.932% of diet)?
Its value is 22.5 mg/100 g.

And the “EPA (C20:5n-3)” value ([1]; 0.932% of diet)?
Its value is 7.5 mg/100 g.

And the “Omega 6/Omega 3 ratio” value ([1]; 0.932% of diet)?
Its value is 2.9.

And the “Total omega 3's” value ([1]; 0.932% of diet)?
Its value is 430 mg/100 g.

What about the “ALA (C18:3n-3)” value ([1]; 1.864% of diet) of the same molecule?
Its value is 622.5 mg/100 g.

And the “DHA (C22:6n-3)” value ([1]; 1.864% of diet)?
The value was 155 mg/100 g.

What about the “DPA (C22:5 n-3)” value ([1]; 1.864% of diet) of the same molecule?
The value was 32.5 mg/100 g.

And the “EPA (C20:5n-3)” value ([1]; 1.864% of diet)?
The value was 12.5 mg/100 g.

And the “Omega 6/Omega 3 ratio” value ([1]; 1.864% of diet)?
The value was 1.5.

What about the “SDA (C18:4n-3)” value ([1]; 1.864% of diet) of the same molecule?
The value was 2.5 mg/100 g.

What about the “Total omega 3's” value ([1]; 1.864% of diet) of the same molecule?
Its value is 825 mg/100 g.

Which results are given for `CC/C=C\C/C=C\C/C=C\C/C=C\C/C=C\C/C=C\CCC(=O)OCC` [DHA Ethyl Ester]?
ARA C20:4n-6 [2, 6]: 0.81 % of fatty acids; C16:0 [2, 6]: 21.71 % of fatty acids; C16:1 [2, 6]: 4.48 % of fatty acids; C18:0 [2, 6]: 6.31 % of fatty acids; C18:1 [2, 6]: 35.94 % of fatty acids; C18:2 [2, 6]: 25.99 % of fatty acids; C20:4n-3 [2, 6]: 0.03 % of fatty acids; C22:4n-6 [2, 6]: 0.16 % of fatty acids; DHA (C22:6n-3) [2, 6]: 0.73 % of fatty acids; DPA (C22:5 n-3) [2, 6]: 0.14 % of fatty acids; EPA (C20:5n-3) [2, 6]: 0.11 % of fatty acids; SDA (C18:4n-3) [2, 6]: 0.24 % of fatty acids; Total C18:3 [2, 6]: 1.03 % of fatty acids; Total SDA, EPA, DPA and DHA concentrations ([2]; thigh meat, 0.27% in feed): 1.2%; ALA (C18:3n-3) ([3]; ethyl ester 0.163% of diet): 70 mg/100 g; DHA (C22:6n-3) ([3]; ethyl ester 0.163% of diet): 67.5 mg/100 g; DPA (C22:5 n-3) ([3]; ethyl ester 0.163% of diet): 15 mg/100 g; EPA (C20:5n-3) ([3]; ethyl ester 0.163% of diet): 10 mg/100 g; Omega 6/Omega 3 ratio ([3]; ethyl ester 0.163% of diet): 8.4; SDA (C18:4n-3) ([3]; ethyl ester 0.163% of diet): 10 mg/100 g; Total omega 3's ([3]; ethyl ester 0.163% of diet): 172.5 mg/100 g; ALA (C18:3n-3) ([3]; ethyl ester 0.326% of diet): 75 mg/100 g; DHA (C22:6n-3) ([3]; ethyl ester 0.326% of diet): 125 mg/100 g; DPA (C22:5 n-3) ([3]; ethyl ester 0.326% of diet): 20 mg/100 g; EPA (C20:5n-3) ([3]; ethyl ester 0.326% of diet): 27.5 mg/100 g; Omega 6/Omega 3 ratio ([3]; ethyl ester 0.326% of diet): 5.7; SDA (C18:4n-3) ([3]; ethyl ester 0.326% of diet): 10 mg/100 g; Total omega 3's ([3]; ethyl ester 0.326% of diet): 257.5 mg/100 g; total omega 3 fatty acids in thigh meat relative to breast meat ([3]; supplemented birds): 2 times; ARA C20:4n-6 [4, 7]: 3.01 % of fatty acids; C16:0 [4, 7]: 21.82 % of fatty acids; C16:1 [4, 7]: 3.09 % of fatty acids; C18:0 [4, 7]: 8.76 % of fatty acids; C18:1 [4, 7]: 30.41 % of fatty acids; C18:2 [4, 7]: 22.94 % of fatty acids; C22:4n-6 [4, 7]: 0.53 % of fatty acids; DHA (C22:6n-3) [4, 7]: 2.78 % of fatty acids; DPA (C22:5 n-3) [4, 7]: 0.48 % of fatty acids; EPA (C20:5n-3) [4, 7]: 0.16 % of fatty acids; SDA (C18:4n-3) [4, 7]: 0.59 % of fatty acids; Total C18:3 [4, 7]: 0.66 % of fatty acids; Total SDA, EPA, DPA and DHA concentrations ([4]; % of fatty acids, 0.27% in feed): 4.00%; ALA (C18:3n-3) ([1]; 0.163% of diet): 40 mg/100 g; DHA (C22:6n-3) ([1]; 0.163% of diet): 177.5 mg/100 g; DPA (C22:5 n-3) ([1]; 0.163% of diet): 10 mg/100 g; Omega 6/Omega 3 ratio ([1]; 0.163% of diet): 5.7; Total omega 3's ([1]; 0.163% of diet): 227.5 mg/100 g; ALA (C18:3n-3) ([1]; 0.326% of diet): 40 mg/100 g; DHA (C22:6n-3) ([1]; 0.326% of diet): 247.5 mg/100 g; DPA (C22:5 n-3) ([1]; 0.326% of diet): 10 mg/100 g; EPA (C20:5n-3) ([1]; 0.326% of diet): 10 mg/100 g; Omega 6/Omega 3 ratio ([1]; 0.326% of diet): 3.8; Total omega 3's ([1]; 0.326% of diet): 307.5 mg/100 g; ALA (C18:3n-3) ([5]; ethyl ester 0.163% of diet): 10 mg/100 g; DHA (C22:6n-3) ([5]; ethyl ester 0.163% of diet): 55.0 mg/100 g; DPA (C22:5 n-3) ([5]; ethyl ester 0.163% of diet): 10 mg/100 g; EPA (C20:5n-3) ([5]; ethyl ester 0.163% of diet): 10 mg/100 g; Omega 6/Omega 3 ratio ([5]; ethyl ester 0.163% of diet): 2.9; Total omega 3's ([5]; ethyl ester 0.163% of diet): 85.0 mg/100 g; ALA (C18:3n-3) ([5]; ethyl ester 0.326% of diet): 10 mg/100 g; DHA (C22:6n-3) ([5]; ethyl ester 0.326% of diet): 80 mg/100 g; DPA (C22:5 n-3) ([5]; ethyl ester 0.326% of diet): 10 mg/100 g; EPA (C20:5n-3) ([5]; ethyl ester 0.326% of diet): 10 mg/100 g; Omega 6/Omega 3 ratio ([5]; ethyl ester 0.326% of diet): 1.9; Total omega 3's ([5]; ethyl ester 0.326% of diet): 110 mg/100 g
